In PubChem BioAssay (NCI):
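Where inhibition never reached the appropriate level, the endpoint shown equals the highest concentration tested. Otherwise, values were interpolated linearly from a five-concentration, 48-hour dose response in 96-well plates. GI50 = concentration required for 50% inhibition of growth. TGI: total growth inhibition.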

How the values were obtained:
Test in all cases: growth of human tumour cells (NCI), 48 h
786-0 renal = system: 786-0 renal
A498 renal = system: A498 renal
A549 NSCLC = system: A549 NSCLC
ACHN renal = system: ACHN renal
BT-549 breast = system: BT-549 breast
CAKI-1 renal = system: CAKI-1 renal
CCRF-CEM leukemia = system: CCRF-CEM leukemia
COLO 205 colon = system: COLO 205 colon
DU-145 prostate = system: DU-145 prostate
EKVX NSCLC = system: EKVX NSCLC
HCC-2998 colon = system: HCC-2998 colon
HCT-116 colon = system: HCT-116 colon
HCT-15 colon = system: HCT-15 colon
HL-60(TB) leukemia = system: HL-60(TB) leukemia
HOP-62 NSCLC = system: HOP-62 NSCLC
HOP-92 NSCLC = system: HOP-92 NSCLC
HS 578T breast = system: HS 578T breast
HT29 colon = system: HT29 colon
IGROV1 ovarian = system: IGROV1 ovarian
K-562 leukemia = system: K-562 leukemia
KM12 colon = system: KM12 colon
LOX IMVI melanoma = system: LOX IMVI melanoma
M14 melanoma = system: M14 melanoma
MALME-3M melanoma = system: MALME-3M melanoma
MCF7 breast = system: MCF7 breast
MDA-MB-231 breast = system: MDA-MB-231 breast
MDA-MB-435 = system: MDA-MB-435
MOLT-4 leukemia = system: MOLT-4 leukemia
NCI-H226 lung = system: NCI-H226 lung
NCI-H23 lung = system: NCI-H23 lung
NCI-H460 lung = system: NCI-H460 lung
NCI-H522 lung = system: NCI-H522 lung
NCI/ADR-RES ovarian = system: NCI/ADR-RES ovarian
OVCAR-4 ovarian = system: OVCAR-4 ovarian
OVCAR-5 ovarian = system: OVCAR-5 ovarian
OVCAR-8 ovarian = system: OVCAR-8 ovarian
PC-3 prostate = system: PC-3 prostate
RPMI-8226 leukemia = system: RPMI-8226 leukemia
RXF 393 renal = system: RXF 393 renal
SF-268 CNS = system: SF-268 CNS
SF-295 CNS = system: SF-295 CNS
SF-539 CNS = system: SF-539 CNS
SK-MEL-2 melanoma = system: SK-MEL-2 melanoma
SK-MEL-28 melanoma = system: SK-MEL-28 melanoma
SK-MEL-5 melanoma = system: SK-MEL-5 melanoma
SK-OV-3 ovarian = system: SK-OV-3 ovarian
SN12C renal = system: SN12C renal
SNB-19 CNS = system: SNB-19 CNS
SNB-75 CNS = system: SNB-75 CNS
SR leukemia = system: SR leukemia
SW-620 colon = system: SW-620 colon
T-47D breast = system: T-47D breast
TK-10 renal = system: TK-10 renal
U251 CNS = system: U251 CNS
UACC-257 melanoma = system: UACC-257 melanoma
UACC-62 melanoma = system: UACC-62 melanoma
UO-31 renal = system: UO-31 renal

`Oc1ccc(-c2nnc(SCc3ccc(O)c4ncccc34)o2)cc1` showed a GI50 (786-0 renal) of 2.64 µM, a TGI (786-0 renal) of 9.55 µM and a GI50 (A498 renal) of 2.37 µM. The TGI (A498 renal) was 7.49 µM, the GI50 (A549 NSCLC) was 0.839 µM and the TGI (A549 NSCLC) was over 31.1 µM. The GI50 (ACHN renal) was 1.08 µM, the TGI (ACHN renal) was 10.1 µM and the GI50 (BT-549 breast) was 0.444 µM. The TGI (BT-549 breast) was 21.2 µM, the GI50 (CAKI-1 renal) was 2.26 µM and the TGI (CAKI-1 renal) was 8.84 µM. It also gave a GI50 (CCRF-CEM leukemia) of 0.833 µM, a TGI (CCRF-CEM leukemia) of over 100 µM and a GI50 (COLO 205 colon) of 3.06 µM. It also gave a TGI (COLO 205 colon) of 11.4 µM, a GI50 (DU-145 prostate) of 0.582 µM and a TGI (DU-145 prostate) of 28.9 µM. For the same molecule, the GI50 (EKVX NSCLC) was 2.63 µM, the TGI (EKVX NSCLC) was 11.3 µM and the GI50 (HCC-2998 colon) was 3.22 µM. For the same molecule, the TGI (HCC-2998 colon) was over 68.8 µM, the GI50 (HCT-116 colon) was 0.379 µM and the TGI (HCT-116 colon) was 26.3 µM. It also gave a GI50 (HCT-15 colon) of 0.51 µM, a TGI (HCT-15 colon) of over 100 µM and a GI50 (HL-60(TB) leukemia) of 1.39 µM. The TGI (HL-60(TB) leukemia) was 6.19 µM, the GI50 (HOP-62 NSCLC) was 0.543 µM and the TGI (HOP-62 NSCLC) was 7.59 µM. It also gave a GI50 (HOP-92 NSCLC) of 0.219 µM, a TGI (HOP-92 NSCLC) of 0.747 µM and a GI50 (HS 578T breast) of 0.388 µM. For the same molecule, the TGI (HS 578T breast) was over 22.3 µM, the GI50 (HT29 colon) was 3.57 µM and the TGI (HT29 colon) was over 100 µM. For the same molecule, the GI50 (IGROV1 ovarian) was 2.23 µM, the TGI (IGROV1 ovarian) was 13.2 µM and the GI50 (K-562 leukemia) was 0.418 µM. For the same molecule, the TGI (K-562 leukemia) was over 100 µM, the GI50 (KM12 colon) was 1.56 µM and the TGI (KM12 colon) was over 100 µM. For the same molecule, the GI50 (LOX IMVI melanoma) was 0.406 µM, the TGI (LOX IMVI melanoma) was 11.9 µM and the GI50 (M14 melanoma) was 0.544 µM. For the same molecule, the TGI (M14 melanoma) was 3.88 µM, the GI50 (MALME-3M melanoma) was 1.96 µM and the TGI (MALME-3M melanoma) was 17.6 µM. The GI50 (MCF7 breast) was 0.721 µM, the TGI (MCF7 breast) was over 100 µM and the GI50 (MDA-MB-231 breast) was 1.96 µM. For the same molecule, the TGI (MDA-MB-231 breast) was 14.7 µM, the GI50 (MDA-MB-435) was 0.418 µM and the TGI (MDA-MB-435) was over 100 µM. It also gave a GI50 (MOLT-4 leukemia) of 1.26 µM, a TGI (MOLT-4 leukemia) of over 100 µM and a GI50 (NCI-H226 lung) of 3.13 µM. For the same molecule, the TGI (NCI-H226 lung) was over 100 µM, the GI50 (NCI-H23 lung) was 0.527 µM and the TGI (NCI-H23 lung) was 11.6 µM. The GI50 (NCI-H460 lung) was 0.364 µM, the TGI (NCI-H460 lung) was 5.09 µM and the GI50 (NCI-H522 lung) was 0.402 µM. The TGI (NCI-H522 lung) was 20.5 µM, the GI50 (NCI/ADR-RES ovarian) was 1.54 µM and the TGI (NCI/ADR-RES ovarian) was over 73.7 µM. It also gave a GI50 (OVCAR-4 ovarian) of 3.41 µM, a TGI (OVCAR-4 ovarian) of over 100 µM and a GI50 (OVCAR-5 ovarian) of 3.33 µM. For the same molecule, the TGI (OVCAR-5 ovarian) was over 100 µM, the GI50 (OVCAR-8 ovarian) was 0.44 µM and the TGI (OVCAR-8 ovarian) was over 40 µM. It also gave a GI50 (PC-3 prostate) of 0.584 µM, a TGI (PC-3 prostate) of over 100 µM and a GI50 (RPMI-8226 leukemia) of 0.544 µM. It also gave a TGI (RPMI-8226 leukemia) of over 100 µM, a GI50 (RXF 393 renal) of 1.43 µM and a TGI (RXF 393 renal) of 34.3 µM. The GI50 (SF-268 CNS) was 0.658 µM, the TGI (SF-268 CNS) was 35.3 µM and the GI50 (SF-295 CNS) was 0.978 µM. The TGI (SF-295 CNS) was 10.6 µM, the GI50 (SF-539 CNS) was 0.666 µM and the TGI (SF-539 CNS) was 15 µM. The GI50 (SK-MEL-2 melanoma) was 0.587 µM, the TGI (SK-MEL-2 melanoma) was 6.91 µM and the GI50 (SK-MEL-28 melanoma) was 2.08 µM. It also gave a TGI (SK-MEL-28 melanoma) of over 100 µM, a GI50 (SK-MEL-5 melanoma) of 0.854 µM and a TGI (SK-MEL-5 melanoma) of over 22.8 µM. For the same molecule, the GI50 (SK-OV-3 ovarian) was 1.77 µM, the TGI (SK-OV-3 ovarian) was 6.54 µM and the GI50 (SN12C renal) was 0.417 µM. The TGI (SN12C renal) was over 38.5 µM, the GI50 (SNB-19 CNS) was 0.45 µM and the TGI (SNB-19 CNS) was 38.2 µM. For the same molecule, the GI50 (SNB-75 CNS) was 0.898 µM, the TGI (SNB-75 CNS) was 8.4 µM and the GI50 (SR leukemia) was 1.1 µM. The TGI (SR leukemia) was over 100 µM, the GI50 (SW-620 colon) was 0.68 µM and the TGI (SW-620 colon) was over 100 µM. The GI50 (T-47D breast) was 2.43 µM, the TGI (T-47D breast) was 9.39 µM and the GI50 (TK-10 renal) was 2.25 µM. The TGI (TK-10 renal) was 7.84 µM, the GI50 (U251 CNS) was 0.386 µM and the TGI (U251 CNS) was 13.7 µM. The GI50 (UACC-257 melanoma) was 2.53 µM, the TGI (UACC-257 melanoma) was 7.89 µM and the GI50 (UACC-62 melanoma) was 2.43 µM. It also gave a TGI (UACC-62 melanoma) of 7.1 µM, a GI50 (UO-31 renal) of 1.35 µM and a TGI (UO-31 renal) of 6.44 µM.
